In patent publication US20250136722A1, “CYTOTOXICITY TARGETING CHIMERAS” (GLAXOSMITHKLINE INTELLECTUAL PROPERTY DEVELOPMENT LIMITED, priority 2021, published 2025):
Where “and” joins values, the source holds several entries; their conditions need not be identical. Equal values may be shown once.

What was measured:
[1] = test system: endogenous target monocytes in human PBMC; assay: PBMC ex vivo monocyte depletion flow cytometry assay (Example 200); format: cell-based; conditions: with anti-cotinine antibody SEQ ID NO: 11/12, 18-24 hours, read-out: Ex Vivo Depletion Assay pEC50 (converted)
Procedure: A human PBMC (peripheral blood mononuclear cells) monocyte depletion flow cytometry assay was developed to screen compounds in a 384-well plate format. This assay incorporated endogenous natural killer cells to deplete endogenous target monocytes.
To screen compounds in the human PBMC monocyte depletion flow cytometry assay, 11-point dose-response curves were made from 1 mM stocks in neat DMSO by serially diluting an ARM compound of Formula (I) four-fold into a 384-well plate row-wise. These serially diluted compounds were then stamped into a flat bottom polypropylene 384-well plate (Greiner Bio-One) at 100 nL/well. Fifty microliters of 30 μg/mL anti-cotinine antibody having a heavy chain sequence of SEQ ID NO: 11 and a light chain sequence of SEQ ID NO: 12 (rabbit variable region with human IgG1 Fc domain containing a DE mutation (S239D/1332E)) that had been diluted in assay medium (RPMI 1640 (Gibco) containing 10% fetal bovine serum (Gibco), 1% Glutamax (Gibco) and 1% sodium pyruvate (Corning) was added to the wells of the plate. The plate was centrifuged for 1 min at 500 rpm (revolutions per minute) and then shaken for 5 min at room temperature. The plate was incubated for 15 minutes at 37° C./5% CO2.
Frozen PBMC cells (HemaCare BioResearch) were thawed and centrifuged at 1,200 rpm for 4 minutes. The cells were diluted to a cell density of 2×10^6 cells/mL in assay medium. Fifty microliters of the diluted cells were added to the wells of the plate. The plate was centrifuged for 1 min at 500 rpm and incubated for 18-24 hours at 37° C./5% CO2.
After 18-24 hours incubation, 2 μL of 6.25 μg human FC block (BD Pharmingen) that was diluted in assay medium was added to the wells of the plate. The plate was centrifuged for 1 minute at 500 rpm and then incubated at room temperature for 15 minutes. Five microliters of 750 nM Helix NP NIR (Biolegend) that had been diluted in assay medium was added to the wells of the plate. Nine microliters of antibody cocktail containing 1/5 diluted fluorescein isothiocyanate (FITC) labeled anti-CD45 antibody (Beckman Coulter), PC7 labeled anti-CD14 antibody (Beckman Coulter) and phycoerythrin (PE) anti-CD4 antibody (Beckman Coulter) was then added to the wells of the plate. The plate was centrifuged for 1 min at 500 rpm and incubated for 30 minutes at 4-8° C. Samples from the plate were run on BD FACS Canto II flow cytometer and data was analyzed using FlowJo software.
ARMs compounds of Formula (I) of the invention were tested for the ability to deplete monocytes in the above assay in one or more experimental runs and the results are shown in Table 3 below. Potency of the compounds of the invention is reported as a pEC50 value. The pEC50 value is the negative log of the EC50 value, wherein the EC50 value is the half maximal effective concentration measured in molar (M). For compounds tested in more than one experimental run, the pEC50 value is reported as an average or as the individual values measured

[2] = target: T1, CHOK1 cells engineered to overexpress human CCR2 (Homo sapiens, UniProt P41597); assay: Antibody dependent cellular cytotoxicity (ADCC) reporter assay (Example 199); format: cell-based; conditions: with anti-cotinine antibody SEQ ID NO: 11/12, CHOK1-human CCR2 target cells, Jurkat FcγRIIIa NFAT-luciferase reporter cells, 12-18 hours; for EC50: read-out: ADCC Reporter Assay pEC50 (converted)
T1 construct: expressed in transfected cells; host or cells: CHOK1 cells
In short: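 CHOK1-hCCR2 target cells are co-incubated for 12–18 h with Jurkat FcγRIIIa/NFAT-luciferase reporter cells, ARM compound (1 pM–10 μM) and anti-cotinine antibody with a DE-mutant human IgG1 Fc (0.01–200 μg/mL). Luminescence is expressed as signal:background against no-compound wells; EC50 comes from nonlinear fit and is reported as pEC50, averaged across runs.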

[3] = target: Anti-cotinine antibody (SEQ ID NO: 11 / SEQ ID NO: 12, rabbit variable region with human IgG1 Fc domain); assay: Binding of anti-cotinine antibody to ARM compounds by SPR, Biacore T200, 37° C. (Example 202); conditions: pH 7.4, rabbit variable region/human IgG1 Fc antibody captured on protein A
In short: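 Antibody captured on protein A chip. Compounds injected (3-fold, 5-point, top 200 nM) at 100 μL/min with 200 s association and 2000 s dissociation, at 37° C. in HEPES pH 7.4 buffer with 1% DMSO. Double-referenced data fit to 1:1 kinetics. Kd = koff/kon, reported as pKd, averaged over runs.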

[4] = target: human alpha1 nicotinic acetylcholine (nACh) receptor (Homo sapiens, UniProt P02708+Q07001); assay: Nicotinic acetylcholine receptor antagonism assay, IONFlux automated patch clamp (Example 203); format: cell-based; conditions: for Emax at 10 µM: maximum percentage antagonism at maximum concentration tested 10 μM; for Emax at 10 µM / Emax at 100 µM: read-out: Maximum Response (%); for IC50: nAChR antagonism, ACh stimulated, patch clamp; for Emax at 100 µM: maximum percentage antagonism at maximum concentration tested 100 μM
human alpha1 nicotinic acetylcholine (nACh) receptor, sequence (P02708 21-457): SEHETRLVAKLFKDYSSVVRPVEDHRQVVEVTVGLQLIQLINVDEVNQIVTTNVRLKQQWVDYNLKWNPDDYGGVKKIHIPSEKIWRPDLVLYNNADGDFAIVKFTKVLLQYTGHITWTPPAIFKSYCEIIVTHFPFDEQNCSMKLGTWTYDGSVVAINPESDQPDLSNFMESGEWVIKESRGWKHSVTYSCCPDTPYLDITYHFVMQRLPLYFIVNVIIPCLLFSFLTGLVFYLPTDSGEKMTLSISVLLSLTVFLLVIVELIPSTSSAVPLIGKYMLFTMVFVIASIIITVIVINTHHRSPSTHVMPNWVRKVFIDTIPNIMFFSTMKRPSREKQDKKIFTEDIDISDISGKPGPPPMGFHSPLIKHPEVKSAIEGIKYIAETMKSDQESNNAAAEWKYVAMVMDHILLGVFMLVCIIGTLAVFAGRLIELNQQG
human alpha1 nicotinic acetylcholine (nACh) receptor, sequence (P11230 24-501 partner): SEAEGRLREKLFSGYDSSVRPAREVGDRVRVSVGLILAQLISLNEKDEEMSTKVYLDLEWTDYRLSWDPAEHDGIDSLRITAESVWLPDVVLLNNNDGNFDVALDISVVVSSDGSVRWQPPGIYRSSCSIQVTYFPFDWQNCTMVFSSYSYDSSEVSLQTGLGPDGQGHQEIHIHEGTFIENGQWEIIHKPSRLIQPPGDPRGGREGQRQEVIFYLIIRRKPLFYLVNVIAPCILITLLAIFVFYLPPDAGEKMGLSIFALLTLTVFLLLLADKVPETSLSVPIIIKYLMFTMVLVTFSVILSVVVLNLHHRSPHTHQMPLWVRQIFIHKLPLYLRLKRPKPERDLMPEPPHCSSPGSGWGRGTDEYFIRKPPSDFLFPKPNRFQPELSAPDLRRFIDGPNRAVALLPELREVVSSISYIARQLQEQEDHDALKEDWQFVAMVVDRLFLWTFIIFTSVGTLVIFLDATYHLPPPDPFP
human alpha1 nicotinic acetylcholine (nACh) receptor, sequence (Q07001 22-517): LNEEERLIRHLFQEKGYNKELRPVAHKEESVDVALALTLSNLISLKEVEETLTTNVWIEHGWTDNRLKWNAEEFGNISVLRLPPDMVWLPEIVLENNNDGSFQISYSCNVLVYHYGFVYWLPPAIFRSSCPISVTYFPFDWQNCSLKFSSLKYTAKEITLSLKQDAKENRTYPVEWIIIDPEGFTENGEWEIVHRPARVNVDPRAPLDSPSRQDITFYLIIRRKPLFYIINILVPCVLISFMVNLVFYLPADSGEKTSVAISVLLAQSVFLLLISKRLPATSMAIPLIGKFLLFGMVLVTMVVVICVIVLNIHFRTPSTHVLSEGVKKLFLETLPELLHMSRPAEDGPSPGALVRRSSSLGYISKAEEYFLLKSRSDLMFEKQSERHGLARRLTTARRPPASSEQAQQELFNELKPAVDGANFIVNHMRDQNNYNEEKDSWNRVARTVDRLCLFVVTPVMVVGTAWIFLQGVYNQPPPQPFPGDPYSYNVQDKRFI
In short: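 Human α1 nAChR-expressing cells were preincubated with compound (top 10 μM or 100 μM), then stimulated with 10 mM ACh; peak currents were recorded by IONFlux automated patch clamp. Percent inhibition versus ACh-alone control was vehicle- and rundown-corrected, then fitted to give IC50, with maximal antagonism at the top concentration; recordings with control current <500 pA were excluded.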

Emax at 10 µM [4] [%]	Compound	EC50 [1] [nM]	ADCC Reporter Assay pEC50 [2]	pKd of Antibody for ARM Compound of Formula (I) [3]	IC50 [4] [nM]	EC50 [2]	Emax at 100 µM [4] [%]
–	CC(C)N(C)[C@@H]1CC[C@H](N2CC[C@H](Nc3ncnc4ccc(C(F)(F)F)cc34)C2=O)[C@H](NC(=O)C2CCC(N3CCC(S(=O)(=O)NCCCCCCNC(=O)[C@H]4CC(=O)N(C)[C@@H]4c4cccnc4)CC3)CC2)C1 (single isomer, unassigned) [compound 149]	0.251	–	–	–	–	–
–	CN1C(=O)C[C@H](C(=O)NCCCOCCCNC(=O)CCCC(=O)NC2CCC(C(=O)N[C@@H]3C[C@H](NC(C)(C)C)CC[C@@H]3N3CC[C@H](Nc4ncnc5ccc(C(F)(F)F)cc45)C3=O)CC2)[C@H]1c1cccnc1 (stereo partly shown) [Example 22]	0.631	9 and 9.3	9.2495	–	–	–
–	CC(C)N(C)[C@@H]1CCC(N2CC[C@H](Nc3ncnc4ccc(C(F)(F)F)cc34)C2=O)[C@H](NC(=O)CCOCCOCCOCCOCCNC(=O)[C@H]2CC(=O)N(C)[C@@H]2c2cccnc2)C1 (stereo partly shown) [Example 39]	2510	–	–	–	–	–
24.7	CC(C)N(C)[C@@H]1CCC(N2CC[C@H](Nc3ncnc4ccc(C(F)(F)F)cc34)C2=O)[C@H](NC(=O)CCOCCOCCOCCOCCOCCNC(=O)[C@H]2CC(=O)N(C)[C@@H]2c2cccnc2)C1 (stereo partly shown) [Example 40]	5.01	–	9.4525	> 10000	–	–
–	CC(C)N(C)C1CCC(N2CC[C@H](Nc3ncnc4ccc(C(F)(F)F)cc34)C2=O)[C@H](N[C@H]2CC[C@@H](C(=O)NCCOCCOCCOCCOCCNC(=O)[C@H]3CC(=O)N(C)[C@@H]3c3cccnc3)CC2)C1 (stereo partly shown) [Example 67]	3.98	–	–	–	–	–
–	CC(C)N(C)[C@@H]1CC[C@H](N2CC[C@H](Nc3ncnc4ccc(C(F)(F)F)cc34)C2=O)[C@H](NC(=O)C2CCN(C3CCN(C(=O)CCCCCCCNC(=O)[C@@H]4CC(=O)N(C)[C@H]4c4cccnc4)CC3)CC2)C1 [Example 154, N-((1R,2S,5R)-5-(Isopropyl(methyl)amino)-2-((S)-2-oxo-3-((6-(trifluoromethyl)quinazolin-4-yl)amino)pyrrolidin-1-yl)cyclohexyl)-1′-(8-((2R,3R)-1-methyl-5-oxo-2-(pyridin-3-yl)pyrrolidine-3-carboxamido)octanoyl)-[1,4′-bipiperidine]-4-carboxamide]	0.501	–	–	–	2.51 nM	–
–	CC(C)N(CCOCCOCCC(=O)N[C@H]1CC[C@@H](C(=O)N[C@@H]2C[C@H](N(C)C(C)C)CC[C@@H]2N2CC[C@H](Nc3ncnc4ccc(C(F)(F)F)cc34)C2=O)CC1)C(=O)CCNC(=O)[C@H]1CC(=O)N(C)[C@@H]1c1ccccc1 [Example 178]	0.398	–	–	–	–	–
–	CC(C)N(C)[C@@H]1CC[C@H](N2CC[C@H](Nc3ncnc4ccc(C(F)(F)F)cc34)C2=O)[C@H](NC(=O)[C@H]2CC[C@@H](NC(=O)CCOCCNC(=O)CCNC(=O)CCNC(=O)[C@H]3CC(=O)N(C)[C@@H]3c3cccnc3)CC2)C1 [Example 182, (2S,3S)-N-(3-((3-((2-(3-(((1S,4s)-4-(((1R,2S,5R)-5-(Isopropyl(methyl)amino)-2-((S)-2-oxo-3-((6-(trifluoromethyl)quinazolin-4-yl)amino)pyrrolidin-1-yl)cyclohexyl)carbamoyl)cyclohexyl)amino)-3-oxopropoxy)ethyl)amino)-3-oxopropyl)amino)-3-oxopropyl)-1-methyl-5-oxo-2-(pyridin-3-yl)pyrrolidine-3-carboxamide]	–	–	9.117	76400	0.514 nM and 0.191 nM	61.9
–	CC(C)N(C)[C@@H]1CC[C@H](N2CC[C@H](Nc3ncnc4ccc(C(F)(F)F)cc34)C2=O)[C@H](NC(=O)CCOCCC(=O)N[C@H]2C[C@@H](C(=O)NCCOCCNC(=O)[C@H]3CC(=O)N(C)[C@@H]3c3cccnc3)C2)C1 [Example 186, (2S,3S)-N-(2-(2-((1S,3R)-3-(3-(3-(((1R,2S,5R)-5-(Isopropyl(methyl)amino)-2-((S)-2-oxo-3-((6-(trifluoromethyl)quinazolin-4-yl)amino)pyrrolidin-1-yl)cyclohexyl)amino)-3-oxopropoxy)propanamido)cyclobutane-1-carboxamido)ethoxy)ethyl)-1-methyl-5-oxo-2-(pyridin-3-yl)pyrrolidine-3-carboxamide]	–	–	9.1435	31800	0.151 nM	55.2
–	CC(C)N(C)[C@@H]1CC[C@H](N2CC[C@H](Nc3ncnc4ccc(C(F)(F)F)cc34)C2=O)[C@H](NC(=O)CCOCCC(=O)N[C@H]2C[C@H](C(=O)NCCOCCNC(=O)[C@H]3CC(=O)N(C)[C@@H]3c3cccnc3)C2)C1 [Example 187]	–	–	9.104	71100	0.324 nM	63.7
74	CC(C)N(C)[C@@H]1CC[C@H](N2CC[C@H](Nc3ncnc4ccc(C(F)(F)F)cc34)C2=O)[C@H](NC(=O)CCCN2CCC3(CCN(CCCNC(=O)[C@H]4CC(=O)N(C)[C@@H]4c4cccnc4)CC3)CC2)C1 [Example 191, (2S,3S)-N-(3-(9-(4-(((1R,2S,5R)-5-(Isopropyl(methyl)amino)-2-((S)-2-oxo-3-((6-(trifluoromethyl)quinazolin-4-yl)amino)pyrrolidin-1-yl)cyclohexyl)amino)-4-oxobutyl)-3,9-diazaspiro[5.5]undecan-3-yl)propyl)-1-methyl-5-oxo-2-(pyridin-3-yl)pyrrolidine-3-carboxamide]	–	–	9.68	2950	0.424 nM	–
–	CC(C)N(C)[C@@H]1CC[C@H](N2CC[C@H](Nc3ncnc4ccc(C(F)(F)F)cc34)C2=O)[C@H](NC(=O)[C@H]2CC[C@H](C(=O)NCCCOCCCCOCCCNC(=O)[C@H]3CC(=O)N(C)[C@@H]3c3cccnc3)CC2)C1 [Example 194, (1 r,4R)-N^1-((1R,2S,5R)-5-(Isopropyl(methyl)amino)-2-((S)-2-oxo-3-((6-(trifluoromethyl)quinazolin-4-yl)amino)pyrrolidin-1-yl)cyclohexyl)-N^4-(3-(4-(3-((2S,3S)-1-methyl-5-oxo-2-(pyridin-3-yl)pyrrolidine-3-carboxamido)propoxy)butoxy)propyl)cyclohexane-1,4-dicarboxamide]	–	–	9.5415	> 100000	0.275 nM	44.9
4.1	CC(C)N(C)[C@@H]1CC[C@H](N2CC[C@H](Nc3ncnc4ccc(C(F)(F)F)cc34)C2=O)[C@H](NC(=O)[C@H]2CC[C@H](C3CCN(C(=O)CCOCCOCCNC(=O)[C@H]4CC(=O)N(C)[C@@H]4c4cccnc4)CC3)CC2)C1 [compound 73]	–	–	9.8185	> 10000	7.94 nM	–
